Bounds are passed on as bounds.

Experimental findings from US8637511B2, “Aminopyrimidines useful as kinase inhibitors” (Vertex Pharmaceuticals Incorporated, priority 2005, dated 2014) are described below.

This assay deals with T1, human Itk kinase (Homo sapiens, UniProt Q08881).
T1 sequence (Q08881 1-620): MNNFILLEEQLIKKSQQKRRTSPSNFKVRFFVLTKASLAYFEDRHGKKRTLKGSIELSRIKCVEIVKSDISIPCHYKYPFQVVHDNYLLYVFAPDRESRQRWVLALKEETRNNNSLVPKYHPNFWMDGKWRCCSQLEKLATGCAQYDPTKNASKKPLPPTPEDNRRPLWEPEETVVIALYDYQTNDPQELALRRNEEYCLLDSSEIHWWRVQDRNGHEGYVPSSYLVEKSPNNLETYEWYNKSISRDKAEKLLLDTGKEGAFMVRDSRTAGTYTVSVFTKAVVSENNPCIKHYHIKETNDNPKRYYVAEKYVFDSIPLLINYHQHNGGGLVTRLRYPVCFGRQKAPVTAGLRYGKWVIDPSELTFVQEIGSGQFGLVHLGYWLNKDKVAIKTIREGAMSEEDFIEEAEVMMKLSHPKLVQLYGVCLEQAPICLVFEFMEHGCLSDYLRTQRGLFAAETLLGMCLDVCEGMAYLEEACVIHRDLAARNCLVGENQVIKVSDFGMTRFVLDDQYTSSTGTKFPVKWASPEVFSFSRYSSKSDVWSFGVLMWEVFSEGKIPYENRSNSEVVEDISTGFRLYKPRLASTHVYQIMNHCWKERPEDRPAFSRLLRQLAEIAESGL
Nature of the assay: Itk inhibition assay: radioactivity-based assay. The settings on record: Ki(app). Type of assay: biochemical. In outline:
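50 nM Itk with 3 μM SAM68 Δ332-443 peptide and 7.5 μM [γ-33P]ATP in MOPS pH 7.0, MgCl2, 25° C; compound (top 50 μM final, 2-fold dilutions, 2% DMSO) preincubated 10 min, reaction 10 min. Phosphocellulose filter capture and scintillation counting; Ki(app) by non-linear regression of initial rates.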
In the case of `CC(C)(C)c1cc(Nc2cc(N3CCC3)nc(Sc3ccc(NC(=O)c4ccccc4Cl)cc3)n2)n[nH]1` [Compound 69], the Ki was in the range of 1000 to 2000 nM. `COCc1cc(Nc2cc(N3CCC3)nc(Sc3ccc(NC(=O)c4ccccc4Cl)cc3)n2)n[nH]1` [Compound 82]: the Ki was in the range of 100 to 1000 nM. The result for `COC1(C)CN(c2cc(Nc3cc(C)n[nH]3)nc(Sc3ccc(NC(=O)c4ccccc4Cl)cc3)n2)C1` [Compound 51] reads ≤ 100 nM; that for `Cc1cc(Nc2cc(N3CCC3)nc(Sc3ccc(NC(=O)c4cnccc4C(F)(F)F)cc3)n2)[nH]n1` [Compound 59], 100 to 1000 nM. Under `Cc1cc(Nc2cc(N3CC(C)(O)C3)nc(Sc3ccc(NC(=O)c4ccccc4Cl)cc3)n2)[nH]n1` [Compound 50] stands ≤ 100 nM; under `Cc1cc(Nc2cc(N3CCC3)nc(Sc3ccc(NC(=O)Cc4ccccc4Cl)cc3)n2)[nH]n1` [Compound 57], 100 to 1000 nM. Under `Cc1cc(Nc2cc(N3CC(OC(C)C)C3)nc(Sc3ccc(NC(=O)c4ccccc4Cl)cc3)n2)n[nH]1` [Compound 38] stands ≤ 100 nM. For the molecule `CCOC1CN(c2cc(Nc3cc(C)[nH]n3)nc(Sc3ccc(NC(=O)c4ccccc4Cl)cc3)n2)C1` [Compound 37], the Ki is ≤ 100 nM. With `CCC(=O)Nc1ccc(Sc2nc(Nc3cc(C)n[nH]3)cc(N3CC(OC(C)(C)C)C3)n2)cc1` [Compound 67], the Ki is 100 to 1000 nM. Under `CCC(=O)Nc1ccc(Sc2nc(Nc3cc(C)n[nH]3)cc(N3CC(N4CCOCC4)C3)n2)cc1` [Compound 68] stands 100 to 1000 nM.
